The source of these data is PubChem BioAssay AID256 (DTP/NCI, 2004).

Several values for one entry are separate records, joined by “and”; a condition that tells them apart may be missing. Identical values can stand only once. Toxic doses and inconclusive results are not listed.

The subject of this test is CD2F1 mice, L1210 leukemia ip, survival T/C. Nature of the test: NCI In Vivo Anticancer Drug Screen. Data for tumor model L1210 Leukemia (intraperitoneal) in CD2F1 (CDF1) mice. Conditions: higher = longer survival. In outline: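 Transplantable tumor in mice; compound-treated vs vehicle-treated groups. Read-out = treated/control ratio of the measured endpoint.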
The mark [1] stands for this setting: endpoint: mean survival time, dose: 100.0 mg/kg/injection, schedule: Q01DX009 (ip), vehicle: saline with Tween-80.
The mark [2] stands for this setting: endpoint: mean survival time, dose: 200.0 mg/kg/injection, schedule: Q01DX009 (ip), vehicle: saline with Tween-80.
Setting [3] is: endpoint: mean survival time, dose: 400.0 mg/kg/injection, schedule: Q01DX009 (ip), vehicle: saline with Tween-80.
Setting [4] is: endpoint: mean survival time, dose: 100.0 mg/kg/injection, schedule: Q04DX002 (ip), vehicle: saline with Tween-80.
[5] abbreviates: endpoint: mean survival time, dose: 200.0 mg/kg/injection, schedule: Q04DX002 (ip), vehicle: saline with Tween-80.
The mark [6] stands for this setting: endpoint: mean survival time, dose: 50.0 mg/kg/injection, schedule: Q01DX009 (ip), vehicle: saline.
Setting [7] is: endpoint: mean survival time, dose: 100.0 mg/kg/injection, schedule: Q01DX001 (ip), vehicle: saline with Tween-80.
The mark [8] stands for this setting: endpoint: mean survival time, dose: 200.0 mg/kg/injection, schedule: Q01DX001 (ip), vehicle: saline with Tween-80.
Where [9] appears, read: endpoint: mean survival time, dose: 400.0 mg/kg/injection, schedule: Q01DX001 (ip), vehicle: saline with Tween-80.
Setting [10] is: endpoint: mean survival time, dose: 200.0 mg/kg/injection, schedule: Q04DX003 (ip), vehicle: saline with Tween-80.
Setting [11] is: endpoint: mean survival time, dose: 400.0 mg/kg/injection, schedule: Q04DX003 (ip), vehicle: saline with Tween-80.
Where [12] appears, read: endpoint: mean survival time, dose: 100.0 mg/kg/injection, schedule: Q04DX003 (ip), vehicle: saline with Tween-80.
Where [13] appears, read: endpoint: mean survival time, dose: 12.5 mg/kg/injection, schedule: Q01DX009 (ip), vehicle: saline.
Where [14] appears, read: endpoint: mean survival time, dose: 25.0 mg/kg/injection, schedule: Q01DX009 (ip), vehicle: saline.
Setting [15] is: endpoint: mean survival time, dose: 50.0 mg/kg/injection, schedule: Q01DX009 (ip), vehicle: saline with Tween-80.

For `CC(C)(Cc1ccc([N+](=O)[O-])cc1)[N+](=O)[O-]`, the T/C (endpoint: mean survival time, dose: 75.0 mg/kg/injection, schedule: Q01DX001 (ip), vehicle: saline) was 98 % of control and the T/C (endpoint: mean survival time, dose: 150.0 mg/kg/injection, schedule: Q01DX001 (ip), vehicle: saline) is 102 % of control.
As for `Cc1ccc2c(c1)NP(=S)(c1ccccc1)N2` (stereo not drawn), the T/C runs as follows: under setting [1], 91 % of control; under setting [2], 86 % of control; under setting [3], 94 % of control.
Turning to `CCCCCCC(C)Oc1ccc(Cl)cc1Cl` (stereo not drawn), the T/C under setting [4] was 90 % of control; the T/C under setting [5] is 90 % of control; the T/C (endpoint: mean survival time, dose: 400.0 mg/kg/injection, schedule: Q04DX002 (ip), vehicle: saline with Tween-80) was 101 % of control.
For the compound `COC(=O)C(N)Cc1ccc(OC(c2ccccc2)(c2ccccc2)c2ccccc2)cc1` (stereo not drawn), the T/C is, setting by setting: under setting [6], 100 % of control; (endpoint: mean survival time, dose: 100.0 mg/kg/injection, schedule: Q01DX009 (ip), vehicle: saline) 92 % of control; (endpoint: mean survival time, dose: 200.0 mg/kg/injection, schedule: Q01DX009 (ip), vehicle: saline) 94 % of control; (endpoint: mean survival time, dose: 400.0 mg/kg/injection, schedule: Q01DX009 (ip), vehicle: saline) 94 % of control.
Turning to `COC(=O)C(C)C1CCC2C3CCC4CC(OC(C)=O)CCC4(C)C3CC(OC(C)=O)C12C` (stereo not drawn), the T/C under setting [7] is 95 % of control, the T/C under setting [8] was 103 % of control and the T/C under setting [9] was 94 % of control.
With `NS(=O)(=O)c1cc(Cl)cc(Cl)c1O`, the T/C by setting is: under setting [10], 91 % of control; under setting [11], 93 % of control.
As to `O=[N+]([O-])c1cccc(C=Nc2ccc3c(c2)C(Br)c2ccccc2-3)c1` (stereo not drawn), the T/C reads like this: under setting [12], 97 % of control; under setting [10], 90 % of control.
Take `CC[C@H]1CN2CCc3cc(OC)c(OC)cc3[C@@H]2C[C@@H]1C[C@@H]1c2cc(OC)c(OC)cc2CCN1N=O`: the T/C is 104 % of control under setting [13]; 104 % of control under setting [14]; 100 % of control (endpoint: mean survival time, dose: 25.0 mg/kg/injection, schedule: Q04DX003 (ip), vehicle: saline); 107 % of control under setting [6]; 95 % of control (endpoint: mean survival time, dose: 50.0 mg/kg/injection, schedule: Q04DX003 (ip), vehicle: saline).
With `O=c1[nH]cnc2[nH]ncc12`, the T/C runs as follows: (endpoint: mean survival time, dose: 8.4 mg/kg/injection, schedule: Q04DX003 (ip), vehicle: saline with Tween-80) 99 % of control; (endpoint: mean survival time, dose: 14.0 mg/kg/injection, schedule: Q04DX003 (ip), vehicle: saline with Tween-80) 103 % of control; (endpoint: mean survival time, dose: 23.4 mg/kg/injection, schedule: Q04DX003 (ip), vehicle: saline with Tween-80) 96 % of control; (endpoint: mean survival time, dose: 39.0 mg/kg/injection, schedule: Q04DX003 (ip), vehicle: saline with Tween-80) 101 % of control and 111 % of control; under setting [15], 104 % of control; (endpoint: mean survival time, dose: 60.0 mg/kg/injection, schedule: Q01DX006 (ip), vehicle: saline with Tween-80) 97 % of control. The T/C (endpoint: mean survival time, dose: 65.0 mg/kg/injection, schedule: Q04DX003 (ip), vehicle: saline with Tween-80) is 99 % of control and 104 % of control; the T/C under setting [1] was 106 % of control; the T/C (endpoint: mean survival time, dose: 108.0 mg/kg/injection, schedule: Q04DX003 (ip), vehicle: saline with Tween-80) was 108 % of control and 111 % of control; the T/C (endpoint: mean survival time, dose: 120.0 mg/kg/injection, schedule: Q01DX006 (ip), vehicle: saline with Tween-80) is 107 % of control; the T/C (endpoint: mean survival time, dose: 180.0 mg/kg/injection, schedule: Q04DX003 (ip), vehicle: saline with Tween-80) was 106 % of control and 109 % of control; the T/C under setting [2] was 107 % of control. Besides, the T/C (endpoint: mean survival time, dose: 300.0 mg/kg/injection, schedule: Q04DX003 (ip), vehicle: saline with Tween-80) was 104 % of control; the T/C (endpoint: mean survival time, dose: 500.0 mg/kg/injection, schedule: Q04DX003 (ip), vehicle: saline with Tween-80) is 104 % of control; the T/C (endpoint: mean survival time, dose: 833.0 mg/kg/injection, schedule: Q04DX003 (ip), vehicle: saline with Tween-80) was 97 % of control; the T/C (endpoint: median survival time, dose: 12.5 mg/kg/injection, schedule: Q01DX009 (ip), vehicle: suspension in saline) was 101 % of control; the T/C (endpoint: median survival time, dose: 25.0 mg/kg/injection, schedule: Q01DX009 (ip), vehicle: suspension in saline) was 103 % of control; the T/C (endpoint: median survival time, dose: 50.0 mg/kg/injection, schedule: Q01DX009 (ip), vehicle: suspension in saline) is 100 % of control. The T/C is 101 % of control (endpoint: median survival time, dose: 100.0 mg/kg/injection, schedule: Q01DX009 (ip), vehicle: suspension in saline) and 107 % of control (endpoint: median survival time, dose: 200.0 mg/kg/injection, schedule: Q01DX009 (ip), vehicle: suspension in saline).
With `CC1(C)N=C(N)N=C(N)N1c1cccc([N+](=O)[O-])c1`, under setting [4], the T/C was 96 % of control.
Consider `Cc1ccc(NC(=O)OCCOc2ccc([N+](=O)[O-])cc2)c(C)c1`, for which the T/C runs as follows: under setting [15], 93 % of control; under setting [1], 98 % of control; under setting [2], 89 % of control.
On the same counts, the results for `CC(C)C(=O)C1CCCCC1` are 103 % of control, 95 % of control and 95 % of control.
Turning to `CCOC(=O)Nc1cc(Cl)c2nnn(C3OC(CO)C(O)C3O)c2n1` (stereo not drawn), the T/C (endpoint: mean survival time, dose: 12.5 mg/kg/injection, schedule: Q01DX005 (ip), vehicle: water) is 90 % of control; the T/C (endpoint: mean survival time, dose: 25.0 mg/kg/injection, schedule: Q01DX005 (ip), vehicle: water) was 94 % of control; the T/C (endpoint: mean survival time, dose: 50.0 mg/kg/injection, schedule: Q01DX005 (ip), vehicle: water) was 86 % of control; the T/C (endpoint: mean survival time, dose: 100.0 mg/kg/injection, schedule: Q01DX005 (ip), vehicle: water) was 96 % of control; the T/C (endpoint: mean survival time, dose: 200.0 mg/kg/injection, schedule: Q01DX005 (ip), vehicle: water) was 90 % of control.
With `Nc1ncnc2c1ncn2C1CC(O)C(CO)O1` (stereo not drawn), the T/C runs as follows: (endpoint: mean survival time, dose: 600.0 mg/kg/injection, schedule: Q03HX024 (ip), vehicle: saline with Tween-80) 97 % of control; (endpoint: mean survival time, dose: 900.0 mg/kg/injection, schedule: Q03HX024 (ip), vehicle: saline with Tween-80) 103 % of control.
Turning to `NC(Cc1ccc(N(CCCl)Cc2ccccc2)cc1)C(=O)O` (stereo not drawn), the T/C by setting is: (endpoint: mean survival time, dose: 3.12 mg/kg/injection, schedule: Q01DX009 (ip), vehicle: distilled water + Tween-80) 103 % of control and 107 % of control; (endpoint: mean survival time, dose: 3.13 mg/kg/injection, schedule: Q01DX009 (ip), vehicle: distilled water + Tween-80) 106 % of control.
Regarding `CC1CN(C2(c3ccccc3)CCCCC2)CCC12OCCO2` (stereo not drawn), the T/C under setting [4] is 93 % of control and the T/C under setting [5] is 97 % of control.
For `COc1cc(-c2cc(OC)c(O)c(OC)c2)cc(OC)c1O`, the T/C runs as follows: under setting [7], 96 % of control; under setting [8], 101 % of control; under setting [9], 90 % of control.
Regarding `Cc1ccccc1NCc1ccccc1`, the T/C runs as follows: (endpoint: mean survival time, dose: 100.0 mg/kg/injection, schedule: Q04DX003 (ip), vehicle: other) 101 % of control; (endpoint: mean survival time, dose: 200.0 mg/kg/injection, schedule: Q04DX003 (ip), vehicle: other) 103 % of control; (endpoint: mean survival time, dose: 400.0 mg/kg/injection, schedule: Q04DX003 (ip), vehicle: other) 100 % of control.
As for `[Cl][Pt+2][Cl].[NH-]c1ccc(Cl)cc1[NH-]`, the T/C is 113 % of control (endpoint: mean survival time, dose: 2.5 mg/kg/injection, schedule: Q01DX009 (ip), vehicle: saline with Tween-80); 118 % of control (endpoint: mean survival time, dose: 5.0 mg/kg/injection, schedule: Q01DX009 (ip), vehicle: saline with Tween-80); 179 % of control (endpoint: mean survival time, dose: 40.0 mg/kg/injection, schedule: Q01DX009 (ip), vehicle: saline with Tween-80).
Regarding `O=C(CCN1CC1)NCCCCCCCCNC(=O)CCN1CC1`, the T/C reads like this: (endpoint: mean survival time, dose: 22.0 mg/kg/injection, schedule: Q01DX001 (ip), vehicle: carboxymethylcellulose (CMC)) 101 % of control; (endpoint: mean survival time, dose: 33.0 mg/kg/injection, schedule: Q01DX001 (ip), vehicle: carboxymethylcellulose (CMC)) 112 % of control; (endpoint: mean survival time, dose: 50.0 mg/kg/injection, schedule: Q01DX001 (ip), vehicle: carboxymethylcellulose (CMC)) 113 % of control.
Regarding `CC(=O)Nc1ccccc1OC(=O)OCC(Cl)(Cl)Cl`, the T/C is, setting by setting: under setting [1], 96 % of control; under setting [2], 96 % of control; under setting [3], 101 % of control.
With `Clc1ccc(CSC2=NCCN2)cc1`, the T/C under setting [13] is 87 % of control, the T/C under setting [14] is 87 % of control and the T/C under setting [6] was 90 % of control.
In the case of `CNC(=O)c1ccccc1C(c1ccccc1)C1(O)CCCCC1` (stereo not drawn), the T/C under setting [12] is 101 % of control, the T/C under setting [10] is 88 % of control and the T/C under setting [11] is 93 % of control.
